Experimental data from paper PMC11724075, “Small-molecule-induced ERBB4 activation to treat heart failure” (Nature Communications, 2025).
Where “and” joins values, the source holds several entries; their conditions need not be identical. Equal entries are not always repeated.

Columns and labels:
[1] = system: iAMs; assay: TUNEL assay in H2O2-treated iAMs; assay type: cell-based, rat; design: In vitro TUNEL assay: unit not given here
Description: To assess apoptosis, a TUNEL assay was performed using the In Situ Cell Death Detection Kit, Fluorescein (Merck, 11684795910) according to the manufacturer’s instructions. After the 4-h incubation, the cells were fixed with 4% paraformaldehyde for 15 min at room temperature, followed by permeabilization with 0.1% Triton X-100 in 0.1% sodium citrate for 2 min on ice. Cells were then incubated with the TUNEL reaction mixture in a humidified chamber at 37 °C for 1 h in the dark. After washing with PBS, the samples were analyzed using fluorescence microscopy to detect apoptotic cells. […]
1 on TUNEL staining (red).
positive cells (n=7 biological replicates in Veh group, n=9 biological replicates for H2O2/Veh group, n=11 […]

[2] = system: iAMs; assay: Bulk RNA sequencing of cardiomyogenically differentiated iAMs; assay type: cell-based, rat; conditions: EF-1 32 µM, 16 h, log2-fold change ≥0.58, P adj <0.05
Description: iAMs were seeded at a density of 6 ×10^6 cells/mL in differentiation medium in 75-cm^2 cell culture flasks (Greiner Bio-One, 658175) and incubated for 9 days (d0 = day of seeding). HCF were seeded at a density of 3 × 10^6 cells/mL in fibroblast medium in 75-cm^2 cell culture flasks. […] Next, cells were lysed using 350 µL buffer RLT (Qiagen) supplemented with β-mercaptoethanol (100:1; Merck, 444203). Total RNA was isolated using the RNeasy Micro Kit (Qiagen, 74104) according to the manufacturer’s protocol, with an extra step of DNase digestion. The concentration and quality of RNA were determined using a Qubit fluorometer (Thermo Fisher Scientific) and 2100 Agilent BioAnalyzer (Agilent Technologies), respectively. Samples with an RNA integrity number >7 were used for library preparation. Sequencing libraries were prepared by Genewiz/Azenta (Leipzig) on cDNA prepared from polyadenylated mRNA. Libraries were sequenced using a NovaSeq 6000 (Illumina) with a read length of 2 ×150 bp.
Gene expression was quantified at the transcript level using Salmon (v1.10.0)[60], with the validatMappings and -gcBias parameters switched on, to the Rnor_6.0 or GRCh38 transcriptome. […] Functional enrichment of DEGs was determined using a hypergeometric test against the Gene Ontology database by using the ClueGO (v2.5.7)[64] module of Cytoscape (v3.9.1)[65] with Benjamini–Hochberg adjusted (FDR) P < 0.05. […]

SMILES: O=C(NC1CC1)C(Sc1nc2ccccc2c(=O)n1C1CCCC1)c1ccccc1 (stereo not shown) [EF-1]
- number of TUNEL-positive (apoptotic) cells (in words) ([1]; 100 µM H2O2): significantly reduced this number
- In vitro TUNEL assay ([1]; H2O2/EF-1, individual replicates): 23.25 and 37.594 and 36.981 and 17.145 and 24.708 and 40.03 and 14.87 and 23.901 and 20.679 and 24.2124 and 24.656
- number of significantly downregulated genes compared to Veh [2]: 1120
- number of significantly upregulated genes compared to Veh [2]: 354
